In general, IC50 refers to the concentration at which inhibition is half-maximal. A higher IC50 goes with a need for much substance.

Data on 36 compounds can be found in US9745321B2, “Fused pyrimidine compound, intermediate, preparation method therefor, and composition and application thereof” (SHANGHAI YINGLI PHARMACEUTICAL CO., LTD, priority 2013, dated 2017).

For one test, the target named is PI3Kδ (Homo sapiens (Human), UniProt O00329). In words: PI3Kδ enzyme activity inhibition IC50 evaluation assay. The test is classed as biochemical. The following applies: luminescence, 25 μM ATP, 50 μM PIP2, 2 hrs room temperature. How it is done:
(§1) PI3Kα, PI3Kδ, PI3Kβ and PI3Kγ Enzyme Activity Inhibition IC50 Evaluation Assay
• 1. Buffer preparation: 50 mM HEPES, pH 7.5, 3 mM MgCl2, 1 mM EGTA, 100 mM NaCl, 0.03% CHAPS. • 2. Compound was formulated in 100% DMSO in a concentration gradient, and added to a 384-well plate to a final DMSO concentration of 1%. • 3. PI3Kα, PI3Kδ, PI3Kβ and PI3Kγ enzymes were diluted to an optimum concentration with the following buffer: 50 mM HEPES, pH 7.5, 3 mM MgCl2, 1 mM EGTA, 100 mM NaCl, 0.03% CHAPS, 2 mM DTT, and transferred to a 384-well plate and incubated with the compound for a certain time. • 4. […] For PI3Kβ and PI3Kγ, it was still necessary to further add 10 μL ADP-Glo Detection Reagent, and then equilibrated at room temperature for 30 minutes. • 5. Read Luminescense with FlexStation, and calculate the inhibition rate as the average of two tests.

The target of the next test is PI3Kα (Homo sapiens (Human), UniProt P42336). The test is described as follows: PI3Kα enzyme activity inhibition IC50 evaluation assay. The test is classed as biochemical. Particulars: ratio PI3Kα vs PI3Kδ. How it is done: as §1
• 1. Buffer preparation: 50 mM HEPES, pH 7.5, 3 mM MgCl2, 1 mM EGTA, 100 mM NaCl, 0.03% CHAPS. • 2. Compound was formulated in 100% DMSO in a concentration gradient, and added to a 384-well plate to a final DMSO concentration of 1%. • 3. PI3Kα, PI3Kδ, PI3Kβ and PI3Kγ enzymes were diluted to an optimum concentration with the following buffer: 50 mM HEPES, pH 7.5, 3 mM MgCl2, 1 mM EGTA, 100 mM NaCl, 0.03% CHAPS, 2 mM DTT, and transferred to a 384-well plate and incubated with the compound for a certain time. • 4. Substrate was diluted to an optimum concentration with the following buffer: 50 mM HEPES, pH 7.5, 3 mM MgCl2, 1 mM EGTA, 100 mM NaCl, 0.03% CHAPS, 2 mM DTT, 50 μM PIP2, 25 μM ATP; then added to a 384-well plate to initiate the reaction, and for PI3Kα, PI3Kβ and PI3Kγ at room temperature reacted for 1 hr, for PI3Kδ at room temperature reacted for 2 hrs. For PI3Kβ and PI3Kγ, it was still necessary to further add 10 μL ADP-Glo Detection Reagent, and then equilibrated at room temperature for 30 minutes. • 5. Read Luminescense with FlexStation, and calculate the inhibition rate as the average of two tests.

Sequence of PI3Kδ (O00329 whole entry): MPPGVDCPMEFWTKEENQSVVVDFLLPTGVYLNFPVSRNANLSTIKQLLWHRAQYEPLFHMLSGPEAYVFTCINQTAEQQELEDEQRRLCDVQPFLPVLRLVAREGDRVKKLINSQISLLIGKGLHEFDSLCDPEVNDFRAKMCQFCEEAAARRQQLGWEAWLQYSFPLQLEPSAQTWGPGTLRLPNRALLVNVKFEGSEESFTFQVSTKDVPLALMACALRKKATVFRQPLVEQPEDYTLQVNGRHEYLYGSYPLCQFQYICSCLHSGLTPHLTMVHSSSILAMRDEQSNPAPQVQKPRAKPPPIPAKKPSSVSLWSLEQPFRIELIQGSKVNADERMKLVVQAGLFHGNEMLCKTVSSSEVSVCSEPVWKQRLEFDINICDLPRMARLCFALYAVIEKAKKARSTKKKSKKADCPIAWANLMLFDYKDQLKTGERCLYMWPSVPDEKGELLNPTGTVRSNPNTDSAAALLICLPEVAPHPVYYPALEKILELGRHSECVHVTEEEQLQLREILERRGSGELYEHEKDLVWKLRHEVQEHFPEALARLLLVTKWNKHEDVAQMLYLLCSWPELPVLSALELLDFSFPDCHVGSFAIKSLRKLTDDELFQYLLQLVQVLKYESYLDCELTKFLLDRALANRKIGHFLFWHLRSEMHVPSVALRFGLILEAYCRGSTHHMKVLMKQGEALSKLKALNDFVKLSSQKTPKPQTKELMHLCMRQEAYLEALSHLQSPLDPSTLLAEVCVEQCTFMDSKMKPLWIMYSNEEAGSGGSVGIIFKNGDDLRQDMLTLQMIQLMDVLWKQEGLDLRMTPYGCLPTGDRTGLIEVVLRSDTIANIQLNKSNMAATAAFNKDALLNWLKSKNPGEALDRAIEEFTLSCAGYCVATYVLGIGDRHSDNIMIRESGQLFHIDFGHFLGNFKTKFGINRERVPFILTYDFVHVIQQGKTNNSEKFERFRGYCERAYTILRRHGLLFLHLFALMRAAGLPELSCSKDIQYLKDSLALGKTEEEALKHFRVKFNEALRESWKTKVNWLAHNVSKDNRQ
Sequence of PI3Kδ (P27986 whole entry partner): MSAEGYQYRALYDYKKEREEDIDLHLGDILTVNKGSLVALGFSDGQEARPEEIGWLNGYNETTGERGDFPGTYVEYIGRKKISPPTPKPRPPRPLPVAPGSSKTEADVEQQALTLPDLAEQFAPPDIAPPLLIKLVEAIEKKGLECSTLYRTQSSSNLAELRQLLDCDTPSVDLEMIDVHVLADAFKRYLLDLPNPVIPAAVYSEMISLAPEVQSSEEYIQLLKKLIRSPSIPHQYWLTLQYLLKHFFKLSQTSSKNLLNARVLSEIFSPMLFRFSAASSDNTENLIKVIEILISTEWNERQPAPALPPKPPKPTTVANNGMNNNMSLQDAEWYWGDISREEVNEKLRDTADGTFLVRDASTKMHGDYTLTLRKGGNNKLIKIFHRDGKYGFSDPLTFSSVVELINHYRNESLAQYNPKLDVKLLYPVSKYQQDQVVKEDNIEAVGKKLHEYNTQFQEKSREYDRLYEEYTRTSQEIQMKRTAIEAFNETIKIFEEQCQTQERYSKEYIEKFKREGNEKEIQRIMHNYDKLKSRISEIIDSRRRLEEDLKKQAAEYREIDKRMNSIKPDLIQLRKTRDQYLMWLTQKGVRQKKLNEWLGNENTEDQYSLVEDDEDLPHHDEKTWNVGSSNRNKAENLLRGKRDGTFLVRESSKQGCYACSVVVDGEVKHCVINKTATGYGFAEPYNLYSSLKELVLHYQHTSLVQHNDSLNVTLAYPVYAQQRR
Sequence of PI3Kα (P42336 whole entry): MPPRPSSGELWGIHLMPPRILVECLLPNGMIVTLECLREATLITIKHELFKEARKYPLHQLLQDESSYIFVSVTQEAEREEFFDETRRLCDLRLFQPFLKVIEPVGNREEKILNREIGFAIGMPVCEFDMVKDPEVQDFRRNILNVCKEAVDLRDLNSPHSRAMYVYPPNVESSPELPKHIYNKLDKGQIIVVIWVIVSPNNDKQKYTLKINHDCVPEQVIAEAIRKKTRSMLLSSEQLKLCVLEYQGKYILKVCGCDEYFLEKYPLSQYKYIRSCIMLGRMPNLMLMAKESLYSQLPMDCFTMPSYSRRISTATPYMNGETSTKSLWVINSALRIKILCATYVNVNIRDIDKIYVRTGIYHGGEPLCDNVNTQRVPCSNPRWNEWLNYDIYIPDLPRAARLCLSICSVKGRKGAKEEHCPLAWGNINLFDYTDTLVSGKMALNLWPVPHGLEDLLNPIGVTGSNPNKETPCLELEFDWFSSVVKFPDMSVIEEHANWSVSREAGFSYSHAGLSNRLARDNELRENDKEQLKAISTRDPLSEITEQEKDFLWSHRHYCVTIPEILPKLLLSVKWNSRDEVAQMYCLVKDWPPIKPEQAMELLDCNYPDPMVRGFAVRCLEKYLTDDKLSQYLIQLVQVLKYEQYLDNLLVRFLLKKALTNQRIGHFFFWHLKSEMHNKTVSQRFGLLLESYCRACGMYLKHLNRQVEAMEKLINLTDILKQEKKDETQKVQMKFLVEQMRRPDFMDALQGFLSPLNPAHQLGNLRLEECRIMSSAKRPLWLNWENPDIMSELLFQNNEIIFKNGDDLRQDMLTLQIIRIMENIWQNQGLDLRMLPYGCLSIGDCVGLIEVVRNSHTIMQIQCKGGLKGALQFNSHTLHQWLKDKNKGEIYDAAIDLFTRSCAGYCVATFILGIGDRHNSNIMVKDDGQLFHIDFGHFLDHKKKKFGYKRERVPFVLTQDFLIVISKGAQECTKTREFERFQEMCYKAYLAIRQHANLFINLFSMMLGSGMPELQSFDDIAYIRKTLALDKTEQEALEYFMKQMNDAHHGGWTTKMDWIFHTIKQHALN
Sequence of PI3Kα (P27986 whole entry partner): as the sequence (P27986 whole entry partner) above

Compound `COc1ncc(-c2nc(N3CCOCC3)nc3c(CN4CCN(C5COC5)CC4)csc23)cc1NS(C)(=O)=O` [Compound 29] returned an IC50 on PI3Kδ of 6.9 nM. Moreover, the α/δ selectivity at PI3Kα stood at 34.

The compound `CC(C)C(=O)N1CCN(Cc2csc3c(-n4ccnc4C(F)(F)F)nc(N4CCOCC4)nc23)CC1` [Compound 30] registered an IC50 against PI3Kδ of 71 nM. The α/δ selectivity at PI3Kα is listed as 36.

For `COc1ncc(-c2nc(N3CCOCC3)nc3c(CCN4CCCCC4)c(C)sc23)cc1NS(C)(=O)=O` [Compound 135], on PI3Kδ, the IC50 stood at 6.3 nM. Also, the α/δ selectivity on PI3Kα is listed as 226.

`COc1ncc(-c2nc(N3CCOCC3)nc3c(CN4CC(C(C)(C)O)C4)csc23)cc1NS(C)(=O)=O` [Compound 53] gave an IC50 on PI3Kδ of 19 nM. The α/δ selectivity on PI3Kα is recorded as 110.

`O=C(CO)N1CCN(Cc2csc3c(-c4cccc5[nH]ccc45)nc(N4CCOCC4)nc23)CC1` [Compound 12]: the midpoint of inhibition on PI3Kδ, the IC50, lay at 17 nM. Further, on PI3Kα, the α/δ selectivity is given as 133.

As to `CC(C)(O)C1CCN(Cc2csc3c(-c4ccnc5[nH]ccc45)nc(N4CCOCC4)nc23)CC1` [Compound 17], it took 53 nM to reach half-maximal inhibition against PI3Kδ (IC50). Moreover, the α/δ selectivity on PI3Kα was determined as 74.

`COc1ncc(-c2nc(N3CCOCC3)nc3c(CN4CCN(C(=O)[C@H](C)O)CC4)c(C)sc23)cc1NS(C)(=O)=O` [Compound 74] had an IC50 on PI3Kδ of 4.4 nM. Also, the α/δ selectivity on PI3Kα is listed as 13.

For `CCC(=O)N1CCN(Cc2csc3c(-c4cnn(C)c4)nc(N4CCOCC4)nc23)CC1` [Compound 18], the IC50 against PI3Kδ was 86 nM. Besides, the α/δ selectivity on PI3Kα is recorded as 58.

`CCNC(=O)C1CCN(Cc2csc3c(-c4cnc(OC)c(NS(C)(=O)=O)c4)nc(N4CCOCC4)nc23)CC1` [Compound 76]: the IC50 at PI3Kδ worked out at 7.3 nM. Besides, on PI3Kα, the α/δ selectivity came out at 60.

In the case of `COc1ncc(-c2nc(N3CCOCC3)nc3c(CN4CCN(C)CC4)csc23)cc1NS(=O)(=O)N(C)C` [Compound 72], half-maximal inhibition against PI3Kδ (IC50) was put at 60 nM. Besides, the α/δ selectivity at PI3Kα is reported as 29.

In turn, `CCN(C)C1CCN(Cc2csc3c(-c4cnc(OC)c(NS(C)(=O)=O)c4)nc(N4CCOCC4)nc23)CC1` [Compound 56] gave an IC50 at PI3Kδ of 7.6 nM. In addition, on PI3Kα, the α/δ selectivity was 293.

Compound `COc1ncc(-c2nc(N3CCOCC3)nc3c(CN4CCc5ccccc5C4)c(C)sc23)cc1NS(C)(=O)=O` [Compound 138] showed an IC50 at PI3Kδ of 34 nM. For the same compound, at PI3Kα, the α/δ selectivity came out at 67.

Turning to `COc1ncc(-c2nc(N3CCOCC3)nc3c(CN4CCn5cnnc5C4)c(C)sc23)cc1NS(C)(=O)=O` [Compound 116], the IC50 at PI3Kδ came to 4.3 nM. The α/δ selectivity on PI3Kα is listed as 57.

Compound `CNC1CCN(Cc2c(C)sc3c(-c4cnc(OC)c(NS(C)(=O)=O)c4)nc(N4CCOCC4)nc23)CC1` [Compound 92] showed an IC50 at PI3Kδ of 71 nM. Also, on PI3Kα, the α/δ selectivity came out at 42.

On PI3Kδ, `COc1ncc(-c2nc(N3CCOCC3)nc3c(CN4CCN(C(C)(C)C)CC4)csc23)cc1NS(C)(=O)=O` [Compound 34] registered an IC50 of 3.4 nM. For the same compound, the α/δ selectivity on PI3Kα amounted to 44.

At PI3Kδ, `COc1ncc(-c2nc(N3CCOCC3)nc3c(CN4CCOCC4)csc23)cc1NS(C)(=O)=O` [Compound 36] returned an IC50 of 13 nM. Besides, the α/δ selectivity at PI3Kα amounted to 23.

`COc1ncc(-c2nc(N3CCOCC3)nc3c(CN4CCC(N(C)C(C)C)CC4)csc23)cc1NS(C)(=O)=O` [Compound 58]: the IC50 against PI3Kδ worked out at 5.4 nM. On PI3Kα, the α/δ selectivity was 150.

For the compound `COc1ncc(-c2nc(N3CCOCC3)nc3c(CN4CCN(C(C)=O)CC4)csc23)cc1NS(C)(=O)=O` [Compound 32], on PI3Kδ, the IC50 was 4.3 nM. Also, at PI3Kα, the α/δ selectivity is recorded as 15.

Compound `Cc1oc2ccccc2c1-c1nc(N2CCOCC2)nc2c(CN3CCN(C(=O)C(C)C)CC3)csc12` [Compound 16] registered an IC50 on PI3Kδ of 567 nM. Besides, the α/δ selectivity at PI3Kα worked out at 18.

Turning to `COc1ncc(-c2nc(N3CCOCC3)nc3c(CN4CCN(C(=O)OC(C)(C)C)CC4)csc23)cc1NS(C)(=O)=O` [Compound 28], on PI3Kδ, half-maximal inhibition (IC50) required 35 nM. The α/δ selectivity at PI3Kα turned out to be 56.

Compound `COC(=O)C1CCN(Cc2c(C)sc3c(-c4cnc(OC)c(NS(C)(=O)=O)c4)nc(N4CCOCC4)nc23)CC1` [Compound 111] registered a 50% inhibitory concentration (IC50) on PI3Kδ of 6.5 nM. For the same compound, at PI3Kα, the α/δ selectivity is 301.

Take `CC(C)C(=O)N1CCN(Cc2csc3c(-c4cncc(NS(C)(=O)=O)c4)nc(N4CCOCC4)nc23)CC1` [Compound 31]: at PI3Kδ, the IC50 came to 4.9 nM. In addition, the α/δ selectivity at PI3Kα was determined as 10.

As to `COc1ncc(-c2nc(N3CCOCC3)nc3c(CN4CCN(C(C)(C)CO)CC4)c(C)sc23)cc1NS(C)(=O)=O` [Compound 119], the IC50 on PI3Kδ turned out to be 5 nM. In addition, the α/δ selectivity on PI3Kα is 84.

Consider `COc1ncc(-c2nc(N3CCOCC3)nc3c(CN(C)C)c(C)sc23)cc1NS(C)(=O)=O` [Compound 94], for which, at PI3Kδ, the IC50 worked out at 32 nM. For the same compound, the α/δ selectivity on PI3Kα came to 31.

Take `COc1ncc(-c2nc(N3CCOCC3)nc3c(CN4CCC(C(C)(C)OC)CC4)csc23)cc1NS(C)(=O)=O` [Compound 54]: the IC50 on PI3Kδ came to 2.7 nM. At PI3Kα, the α/δ selectivity is 108.

`CN1CCN(Cc2csc3c(-c4cncc(NS(C)(=O)=O)c4)nc(N4CCOCC4)nc23)CC1` [Compound 75] had an IC50 against PI3Kδ of 31 nM. The α/δ selectivity at PI3Kα came out at 19.

`CS(=O)(=O)N1CCN(Cc2csc3c(-c4c(F)ccc5[nH]ccc45)nc(N4CCOCC4)nc23)CC1` [Compound 1] had an IC50 against PI3Kδ of 105 nM. Further, at PI3Kα, the α/δ selectivity is 12.

As to `COc1ncc(-c2nc(N3CCOCC3)nc3c(CN4CCC(=O)CC4)c(C)sc23)cc1NS(C)(=O)=O` [Compound 107], it took 11 nM to reach half-maximal inhibition against PI3Kδ (IC50). Moreover, the α/δ selectivity on PI3Kα is on record as 45.

As for `COc1ncc(-c2nc(N3CCOCC3)nc3c(CN4CCN(CC(F)(F)F)CC4)csc23)cc1NS(C)(=O)=O` [Compound 64], at PI3Kδ, the IC50 came to 9.1 nM. Moreover, the α/δ selectivity on PI3Kα stood at 110.

At PI3Kδ, `COc1ncc(-c2nc(N3CCOCC3)nc3ccoc23)cc1NS(C)(=O)=O` [Compound 38] had an IC50 of 108 nM. Further, the α/δ selectivity at PI3Kα worked out at 3.

In turn, `COc1ncc(-c2nc(N3CCOCC3)nc3c(CN4CCN(C)C(=O)C4)c(C)sc23)cc1NS(C)(=O)=O` [Compound 140] registered an IC50 against PI3Kδ of 3.2 nM. For the same compound, the α/δ selectivity on PI3Kα amounted to 55.

Consider `Cc1nc(Cl)cn1-c1nc(N2CCOCC2)nc2c(CN3CCN(C(=O)C(C)C)CC3)csc12` [Compound 23], for which the IC50 against PI3Kδ is 27 nM. In addition, the α/δ selectivity at PI3Kα is 40.

In turn, `COc1ncc(-c2nc(N3CCOCC3)nc3c(CN4CCC(F)CC4)c(C)sc23)cc1NS(C)(=O)=O` [Compound 105] displayed an IC50 against PI3Kδ of 31 nM. Besides, the α/δ selectivity at PI3Kα amounted to 77.

`COc1ncc(-c2nc(N3CCOCC3)nc3c(CN4CCNCC4)c(C)sc23)cc1NS(C)(=O)=O` [Compound 96] came in with an IC50 on PI3Kδ of 31 nM. Further, at PI3Kα, the α/δ selectivity is 64.

With `COc1ncc(-c2nc(N3CCOCC3)nc3c(CN4CCN(C(C)(C)C)CC4)csc23)cc1NS(=O)(=O)C1CC1` [Compound 67], the IC50 on PI3Kδ was 3.6 nM. Further, the α/δ selectivity on PI3Kα stood at 195.

`CC(C)C(=O)N1CCN(Cc2csc3c(-c4cnn(C)c4)nc(N4CCOCC4)nc23)CC1` [Compound 19] came in with an IC50 against PI3Kδ of 87 nM. Moreover, at PI3Kα, the α/δ selectivity worked out at 49.
